# Assays:
# β-catenin = target: T1, β-catenin (Homo sapiens, UniProt P35222); experiment: SRP test (Biacore T200), binding to ligand β-catenin; conditions: Biacore T200, CM5 chip with β-catenin, HEPES pH 7.4, 0.1% DMSO, 25 °C
# T1 sequence (P35222 1-781): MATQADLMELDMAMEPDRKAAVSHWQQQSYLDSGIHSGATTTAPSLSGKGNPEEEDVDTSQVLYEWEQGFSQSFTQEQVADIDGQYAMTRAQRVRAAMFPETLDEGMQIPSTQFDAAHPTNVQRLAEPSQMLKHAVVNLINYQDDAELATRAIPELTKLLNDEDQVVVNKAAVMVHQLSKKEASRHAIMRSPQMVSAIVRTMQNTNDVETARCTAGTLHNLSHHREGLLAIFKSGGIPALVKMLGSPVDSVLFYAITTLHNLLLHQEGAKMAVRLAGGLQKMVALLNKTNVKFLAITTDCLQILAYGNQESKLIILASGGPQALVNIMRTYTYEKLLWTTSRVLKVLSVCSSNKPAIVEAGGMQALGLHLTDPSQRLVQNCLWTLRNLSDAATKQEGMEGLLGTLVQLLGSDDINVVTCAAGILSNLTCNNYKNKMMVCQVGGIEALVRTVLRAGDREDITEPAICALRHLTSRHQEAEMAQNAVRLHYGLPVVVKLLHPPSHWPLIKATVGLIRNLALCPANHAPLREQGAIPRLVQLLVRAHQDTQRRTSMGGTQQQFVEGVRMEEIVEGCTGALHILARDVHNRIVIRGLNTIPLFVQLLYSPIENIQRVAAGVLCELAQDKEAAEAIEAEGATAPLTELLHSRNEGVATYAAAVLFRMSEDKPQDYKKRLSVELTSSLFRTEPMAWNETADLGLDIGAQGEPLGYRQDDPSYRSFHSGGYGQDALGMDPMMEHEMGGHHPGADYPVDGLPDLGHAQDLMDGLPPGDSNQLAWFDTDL
# Procedure: • 1. Experimental settings • 1. The analyte is in powder form. • 2. The temperature is 25 °C • 3. The analysis equipment adopts Biacore T200 instrument. • 2. Sample dilution • 1. Ligand β-catenin diluted with HEPES (pH 7.4), 0.5 mg/mL • 2. The analyte was dissolved in DMSO and diluted with 0.1% DMSO HEPES (pH 7.4). • 3. Experimental process • 1. Operate and start according to the standard of Biacore T200 instrument. • 2. Prepare buffer HEPES (pH 7.4) and 500 ml of deionized water for washing syringes (filtered by […] membrane). • 3. Start installing the chip and install the Cm5 chip according to the standard process. • 4. Prepare to start the formal experiment, the buffer will flush the flow path system inside the entire system at a high flow rate. • 5. Choose the appropriate program according to the sample size. • 6. Start capturing the chip and prepare a sufficient volume of ligands β-catenin, EDC/NHS, and blocking solution. The conjugation procedure was started with a conjugation time of 7 min, a flow rate of […], and a final ligand conjugation of approximately 16000RU. • 7. After the conjugation is completed, the sample detection is started, and the analyte binding time is set to 120 s. • Flow rate of 30 μL/min; The dissociation time was 200 s and the flow rate was 30 μL/min. Regeneration time 30 s, • The flow rate is 30 μL/min. • 8. […]
# SW480 cells = experiment: CCK8 assay, SW480 cells; assay type: cell-based; conditions: CCK-8, SW480 cells, 24 hours incubation at 37 °C, DMEM (2% FBS), OD450-OD600
# Procedure: • 1. SW480 Cell plate • Cells digested, counted, and laid a 96-well plate (flat-bottomed transparent) with 10,000 cells/100 ul DMEM (10% FBS) per well; • 2. Observe the cell status on the next day, and start adding medicine after the cells are intact; • 3. Dilute the compound with DMEM (2% FBS) and dilute it in a gradient at concentrations of 20 μM, 10 μM, 5 μM, 2.5 μM, 1.25 μM, 0.625 μM, 0.3125 μM, 0.15625 μM, 0 μM (equal volume DMSO); • 4. Add 100 μl of the above compounds of different concentrations to each well, and make 2 compound wells for each concentration gradient; Leave 3 blank wells (DMEM 2% FBS culture medium only, no cells); • 5. Incubate at 37 °C for 24 hours; • 6. […] Measure absorbance at 450 nm and absorbance at 600 nm (exclude interference from the reagent base color and the absorbance value of the plate itself); • 9. The final absorbance value is OD450 nm-OD600 nm, and the rejection rate is calculated.
# Suppression Rate=[(Ac−As)/(Ac−Ab)]×100% • As: absorbance of the experimental wells (medium containing cells, CCK-8, drug to be tested); • Ac: absorbance of the control wells (medium containing cells, CCK-8, no drug to be tested); • Ab: Absorbance of blank wells (medium without cells and drug to be tested, CCK-8).
SMILES,Kd (β-catenin) [µM],further results
CC(C)c1ccc(-c2cccc(S(=O)(=O)N3CCCC(c4cccc(OC(C)(C)C(=O)NCC(=O)N5CCC[C@H]5CN)c4)C3)c2)cc1 (stereo partly shown) [Compound 115-010],284,–
CC(C)c1ccc(-c2cccc(S(=O)(=O)N3CCCC(c4cccc(OC(C)(C)C(=O)NCC(=O)N5CC[C@@H](CN)C5)c4)C3)c2)cc1 (stereo partly shown) [Compound 115-012],760,–
"CC(C)c1ccc(-c2cccc(S(=O)(=O)N3CCCC(c4cccc(OC(C)(C)C(=O)NCC(=O)N5CCC[C@H]5CCN)c4)C3)c2)cc1 (stereo partly drawn) [Compound 115-014, N-(2-((S)-2-(2-aminoethyl)pyrrolidin-1-yl)-2-oxyethyl)-2-(3-(1-((4′-isopropyl-[1,1′-Biphenyl]-3-yl)sulfonylpiperidine-3-yl)phenoxy)-2-methylpropionamide)]",–,"IC50 (SW480 cells; Homo sapiens, read-out: SW^10 IC50): 52.9 µM"
CC(C)(Oc1cccc(C2CCCN(C(=O)NCc3ccc(-c4cn[nH]c4)cc3)C2)c1)C(=O)NCC(=O)N1CCCC1CN (stereo not shown) [Compound 115-020],–,SW^10 IC50 (SW480 cells): Inactive

# From patent US20260327202A1, “COMPOUND CONTAINING 2-METHYL-2-(3-(PIPERIDIN-3-YL)PHENOXY)-2-METHYLPROPANAMIDE SKELETON” (JIANGSU MINGSHENG JUTAI BIOTECHNOLOGY CO. LTD, priority 2023, published 2026)
